Test results taken from patent publication US10859565B2, “High throughput 3D assay for immune cell and drug homing, migration and tumor cytotoxicity” (Corning Incorporated, priority 2017, dated 2020).

Key:
Format in all cases: cell-based
[1] = system: A549/GFP tumor cells; assay: NK induced cytotoxicity of A549/GFP tumor cells cultured in 3D; conditions: NK cells exposed to SDF-1α without PGE2; 24 hours
Protocol: (§1) A549/GFP Cells (Cell Biolabs, Inc. Cat. No. AKR-209), were seeded into 96 well spheroid microplates (Corning Cat. No. 4515) at 2,000 cells per well in Iscove's Modification of DMEM (IMDM) (Corning Cat. No. 10-016-CM) supplemented with 10% fetal bovine serum (FBS) (Corning Cat. No. 35-010-CV). The next day, medium was replaced with […] IMDM 10% FBS containing 30 ng/mL of Human SDF-1 alpha (SDF-1α)/CXCL12 (Shenandoah Biotechnology Inc™ Cat. No. 100-20) or vehicle control. NK92-MI cells were stained for one hour with 80 μM CellTracker™ Blue CMHC Dye (Molecular Probes™ Cat. No. C2110) while simultaneously being treated with 2 μg/mL prostaglandin E2 (PGE2) (Tocris Cat. No. 2296) or vehicle control in IMDM without serum for an hour. NK-92MI cells were then re-suspended in serum free IMDM and seeded into the apical chamber of the inserts at 50,000 cells/insert. After 24 hours, inserts were removed and spheroid microplates were processed for flow cytometry. […] Cells were then analyzed via flow cytometry utilizing the Miltenyi Biotec MacsQuant®.
(§2) NK-92MI migration and tumoricidal activity of A549/GFP cells was assessed utilizing the commercially available Corning HTS 96 Transwell inserts with the Corning 96 well spheroid microplate, as shown in FIG. 4 and FIG. 5. […]

[2] = system: NK-92MI cells; assay: NK-92MI (NK) cell migration through HTS Transwell towards A549/GFP 3D tumor spheroids, flow cytometry; conditions: 24 hours
Protocol: as §1, §2

[3] = system: LN229 spheroids; assay: Cytotoxicity of LN229 spheroids after direct culture with compounds; conditions: 48 hours of direct culture; N=12 wells per concentration

Q: Which results are given for SDF-1α?
A: viability of A549/GFP tumor cells (tumoricidal activity of NK cells) [1]: lowest viability; NK migration ([2]; 30 ng/mL SDF-1α present with the tumor spheroid in the spheroid microplate): significantly increased

Q: For `CCCCC[C@H](O)/C=C/[C@H]1[C@H](O)CC(=O)[C@@H]1C/C=C\CCCC(=O)O` [PGE2, prostaglandin E2], which NK migration ([2]; NK cells exposed to 2 μg/mL PGE2 for an hour) is on record?
A: significantly decreased

Q: Which “cytotoxicity of LN229 spheroids” value [3] does the source give for `COc1cc(/C=C/C(=O)N2CCC=CC2=O)cc(OC)c1OC` [Piperlongumine] here?
A: dose dependent cytotoxicity
